# Experimental data reported in US8455397B2, “Penoxsulam as a turfgrass, vineyard and orchard floor herbicide” (Dow AgroSciences, LLC, priority 2005, dated 2013).
# Tested on: Hydrocotyle species (HYDSS)
# Assay: Post emergent synergy field study, penoxsulam + dicamba granule
# Assay type: in vivo
# Details: 112 gai/Ha on 30-3-4 granule fertilizer, average of 2 studies 4 weeks after application
# Procedure: Field and greenhouse studies were conducted to determine if there may be any synergistic response when penoxsulam is combined with other herbicides for post emergence broadleaf or sedge control. Field studies were conducted in established turfgrass sites containing a natural population of target broadleaf weeds. Replicated trials, containing a minimum of three replications and having individual plots ranging in size from 25 to 50 ft. sq (2.3 to 4.6 square meters), were initiated in the late spring when turf and weeds were actively growing. Granule treatments were uniformly applied to individual plots using a common hand-shaker method. Applications were made in the early morning when dew was present. Natural rainfall and supplemental irrigation were used to maintain healthy turf and active weed growth throughout the study period. Control of each weed species in the study site was made at 2, 4 and 8 weeks after treatment. Control was determined visually by comparing treated and untreated weeds and scored on a 0 to 100 percent scale where 0 corresponds to no control and 100 corresponds to complete kill.
# Component A was penoxsulam at 0.02 or 0.04 lb ai/A. Component B was dicamba at 0.1 lb ai/A. Individual products and mixture were applied on a 30-3-4 granule fertilizer formulated to deliver 116 pounds fertilizer per acre (129 kg per hectare). Loadings for the individual component on the fertilizer were: • Penoxsulam 22.4 gai/Ha (0.02 lb ai/A)=0.017% • Penoxsulam 44.9 gai/Ha (0.04 lb ai/A)=0.034% • Dicamba 112 gae/Ha (0.1 lb ai/A)=0.086%
# For combinations the same loadings were applied to the same granule carrier and applied as a single product to test area.
compound,measurement,value
"COc1c(Cl)ccc(Cl)c1C(=O)O [Dicamba, dicamba, reference compound]",% Control Component B,29%
